Values of other authors as cited in patent US6156340A, “Orally administrable time release drug containing products” (Duquesne University of the Holy Ghost, priority 1996, dated 2000).

Columns and labels:
[1] = not given; remark: listed apart in the source
[2] = repeated oral administration, long term therapy

O=C(O)Cc1ccccc1Nc1c(Cl)cccc1Cl [diclofenac sodium]
water solubility: high water solubility | absorption ([1]; following oral administration): completely absorbed | metabolism ([1]; in vivo): extensive metabolism | elimination half-life in plasma ([1]; plasma): relatively short elimination half-life in plasma | side effects [2]: frequently causes gastrointestinal disturbances and may cause kidney failure
